A value given as a limit tells only on which side of the number the result lay.

Assay [1] deals with T1, Alpha-2A adrenergic receptor (Homo sapiens, UniProt P08913).
T1 sequence (P08913 whole entry): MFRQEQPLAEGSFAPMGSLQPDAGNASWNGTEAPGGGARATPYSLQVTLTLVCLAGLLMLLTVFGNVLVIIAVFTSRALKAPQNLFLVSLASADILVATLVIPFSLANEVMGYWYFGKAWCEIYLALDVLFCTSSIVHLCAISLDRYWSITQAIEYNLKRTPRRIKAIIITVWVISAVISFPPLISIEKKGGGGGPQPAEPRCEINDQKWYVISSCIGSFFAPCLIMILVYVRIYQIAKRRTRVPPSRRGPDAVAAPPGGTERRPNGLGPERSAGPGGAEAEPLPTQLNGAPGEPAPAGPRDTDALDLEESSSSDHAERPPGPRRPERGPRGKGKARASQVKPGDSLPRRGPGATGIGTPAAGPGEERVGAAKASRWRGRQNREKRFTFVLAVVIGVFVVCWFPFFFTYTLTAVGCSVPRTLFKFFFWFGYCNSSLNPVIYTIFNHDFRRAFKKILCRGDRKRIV
Put plainly: Binding affinity for human cloned Alpha-2A adrenergic receptor.

The target in assay [2] is 5-hydroxytryptamine receptor 2A (Homo sapiens, UniProt P28223). Put plainly: biochemical. In kind it is cell-based, L929.
Description: Binding affinity for human cloned 5-hydroxytryptamine 2A receptor expressed in L929 cells using [125I]R91150 as radioligand
The target of assay [3] is T2, 5-hydroxytryptamine receptor 1A (Homo sapiens, UniProt P08908).
T2 sequence (P08908 whole entry): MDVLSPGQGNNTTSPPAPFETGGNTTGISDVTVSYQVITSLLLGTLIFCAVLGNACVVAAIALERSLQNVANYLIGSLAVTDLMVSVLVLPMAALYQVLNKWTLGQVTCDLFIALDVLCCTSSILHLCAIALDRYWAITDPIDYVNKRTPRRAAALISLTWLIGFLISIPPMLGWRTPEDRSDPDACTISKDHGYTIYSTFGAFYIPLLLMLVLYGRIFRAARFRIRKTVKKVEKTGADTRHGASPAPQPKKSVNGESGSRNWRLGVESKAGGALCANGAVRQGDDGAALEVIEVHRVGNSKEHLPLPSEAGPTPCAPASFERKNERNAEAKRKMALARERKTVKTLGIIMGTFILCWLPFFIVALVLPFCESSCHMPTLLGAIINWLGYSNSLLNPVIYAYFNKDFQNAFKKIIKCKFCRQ
Put plainly: Binding affinity for human cloned 5-hydroxytryptamine 1A receptor.

Assay [4] concerns the target Serotonin 3 (5-HT3) receptor. Put plainly: Binding affinity for human cloned 5-hydroxytryptamine 3 receptor. It counts as protein-complex assay.
Assay [5] deals with 5-hydroxytryptamine receptor 1D (Homo sapiens, UniProt P28221). As to the kind of experiment: Binding affinity for human cloned 5-hydroxytryptamine 1D receptor.
The target of assay [6] is Histamine H1 receptor (Homo sapiens, UniProt P35367). As to the kind of experiment: Binding affinity for human cloned Histamine H1 receptor expressed in CHO cells using [3H]pyrilamine as radioligand. It counts as cell-based.
Assay [7] deals with T3, Alpha-2C adrenergic receptor (Homo sapiens, UniProt P18825).
T3 sequence (P18825 whole entry): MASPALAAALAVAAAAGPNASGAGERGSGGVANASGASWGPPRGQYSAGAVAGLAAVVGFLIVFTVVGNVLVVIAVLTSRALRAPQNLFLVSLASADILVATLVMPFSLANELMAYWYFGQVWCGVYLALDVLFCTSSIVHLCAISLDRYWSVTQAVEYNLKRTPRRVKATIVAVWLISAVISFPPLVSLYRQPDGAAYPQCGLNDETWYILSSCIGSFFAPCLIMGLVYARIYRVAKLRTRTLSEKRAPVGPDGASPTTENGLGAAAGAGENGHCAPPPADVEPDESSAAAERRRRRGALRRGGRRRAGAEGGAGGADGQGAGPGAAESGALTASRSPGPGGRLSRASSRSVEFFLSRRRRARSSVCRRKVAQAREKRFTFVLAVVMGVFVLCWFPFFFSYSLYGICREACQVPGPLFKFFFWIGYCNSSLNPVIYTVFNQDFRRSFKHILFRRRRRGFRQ
Put plainly: Binding affinity for human cloned Alpha-2C adrenergic receptor.

The test system of assay [8] is Rattus norvegicus. As to the kind of experiment: In vivo activity in mCPP challenge test were performed in male Wistar rats by subcutaneous administration. In kind it is functional.
Assay [9] deals with D(2) dopamine receptor (Rattus norvegicus, UniProt P61169). Put plainly: Binding affinity for rat Dopamine receptor D2.
Assay [10] concerns the target T4, D(4) dopamine receptor (Homo sapiens, UniProt P21917).
T4 sequence (P21917 whole entry): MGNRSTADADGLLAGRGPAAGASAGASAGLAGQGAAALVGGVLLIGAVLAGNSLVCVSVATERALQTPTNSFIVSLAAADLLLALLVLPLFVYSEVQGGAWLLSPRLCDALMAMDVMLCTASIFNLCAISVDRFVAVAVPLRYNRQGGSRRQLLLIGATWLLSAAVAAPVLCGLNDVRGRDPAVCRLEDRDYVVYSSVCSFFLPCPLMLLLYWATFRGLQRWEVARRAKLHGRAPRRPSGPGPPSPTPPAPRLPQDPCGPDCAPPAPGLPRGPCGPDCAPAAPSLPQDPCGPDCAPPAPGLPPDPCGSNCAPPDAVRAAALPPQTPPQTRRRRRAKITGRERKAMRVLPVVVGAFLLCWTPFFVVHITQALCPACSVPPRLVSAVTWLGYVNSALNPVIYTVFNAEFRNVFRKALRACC
As to the kind of experiment: Binding affinity for human cloned Dopamine receptor D4.

Assay [11] addresses D(3) dopamine receptor (Homo sapiens, UniProt P35462). As to the kind of experiment: Binding affinity for human cloned Dopamine receptor D3.
In assay [12] the target is D(2) dopamine receptor (Homo sapiens, UniProt P14416). Put plainly: Binding affinity for human cloned Dopamine receptor D2L.
Assay [13] concerns the target T5, Alpha-1A adrenergic receptor (Homo sapiens, UniProt P35348).
T5 sequence (P35348 whole entry): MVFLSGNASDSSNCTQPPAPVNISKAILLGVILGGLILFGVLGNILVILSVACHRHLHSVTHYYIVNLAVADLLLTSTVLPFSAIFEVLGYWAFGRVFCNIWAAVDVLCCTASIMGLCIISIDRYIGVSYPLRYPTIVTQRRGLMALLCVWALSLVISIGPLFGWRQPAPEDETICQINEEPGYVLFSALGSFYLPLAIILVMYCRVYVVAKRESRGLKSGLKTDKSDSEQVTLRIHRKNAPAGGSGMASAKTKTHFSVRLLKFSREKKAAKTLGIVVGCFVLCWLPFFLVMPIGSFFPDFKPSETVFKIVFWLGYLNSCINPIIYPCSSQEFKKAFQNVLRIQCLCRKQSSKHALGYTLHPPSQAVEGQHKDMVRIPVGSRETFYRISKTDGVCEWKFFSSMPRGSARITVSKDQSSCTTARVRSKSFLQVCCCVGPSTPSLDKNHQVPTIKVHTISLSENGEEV
Put plainly: Binding affinity for human cloned Alpha-1A adrenergic receptor.

The target in assay [14] is T6, 5-hydroxytryptamine receptor 2C (Homo sapiens, UniProt P28335).
T6 sequence (P28335 whole entry): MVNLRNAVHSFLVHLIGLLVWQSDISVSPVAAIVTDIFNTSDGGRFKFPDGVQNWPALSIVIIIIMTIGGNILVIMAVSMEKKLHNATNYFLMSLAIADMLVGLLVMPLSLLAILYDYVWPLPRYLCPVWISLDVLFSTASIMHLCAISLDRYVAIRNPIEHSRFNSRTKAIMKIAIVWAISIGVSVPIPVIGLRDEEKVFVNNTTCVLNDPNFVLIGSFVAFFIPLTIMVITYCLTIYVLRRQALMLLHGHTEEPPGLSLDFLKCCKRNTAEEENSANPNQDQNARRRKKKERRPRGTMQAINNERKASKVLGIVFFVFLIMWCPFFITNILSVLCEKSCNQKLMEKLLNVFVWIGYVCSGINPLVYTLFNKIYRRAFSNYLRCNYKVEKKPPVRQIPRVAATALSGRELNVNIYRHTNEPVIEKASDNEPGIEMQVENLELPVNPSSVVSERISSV
Put plainly: Binding affinity for human cloned 5-hydroxytryptamine 2C receptor expressed in CHO cells using [3H]mesulergine as radioligand. It counts as cell-based.

For assay [15], the target named is T7, 5-hydroxytryptamine receptor 2C (Rattus norvegicus) (UniProt P08909).
T7 sequence (whole entry): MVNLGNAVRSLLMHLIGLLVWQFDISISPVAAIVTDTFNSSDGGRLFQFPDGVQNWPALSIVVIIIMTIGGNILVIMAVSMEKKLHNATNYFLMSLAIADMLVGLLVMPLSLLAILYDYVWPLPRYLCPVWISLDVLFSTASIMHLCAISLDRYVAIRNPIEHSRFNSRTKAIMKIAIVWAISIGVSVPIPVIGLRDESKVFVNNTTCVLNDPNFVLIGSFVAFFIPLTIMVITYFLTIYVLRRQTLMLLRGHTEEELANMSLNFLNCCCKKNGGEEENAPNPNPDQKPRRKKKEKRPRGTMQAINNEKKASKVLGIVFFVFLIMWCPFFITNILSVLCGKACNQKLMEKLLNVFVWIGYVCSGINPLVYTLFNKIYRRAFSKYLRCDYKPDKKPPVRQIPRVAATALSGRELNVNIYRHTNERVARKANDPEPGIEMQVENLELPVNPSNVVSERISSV
Put plainly: In vivo activity in rat mCPP challenge test following p.o. administration. In kind it is functional, organism-based.

Assay [16] addresses 5-hydroxytryptamine receptor 7 (Homo sapiens, UniProt P34969). As to the kind of experiment: Binding affinity for human cloned 5-hydroxytryptamine 7 receptor.

D(2) dopamine receptor (Homo sapiens, UniProt P14416), sequence (P14416 whole entry): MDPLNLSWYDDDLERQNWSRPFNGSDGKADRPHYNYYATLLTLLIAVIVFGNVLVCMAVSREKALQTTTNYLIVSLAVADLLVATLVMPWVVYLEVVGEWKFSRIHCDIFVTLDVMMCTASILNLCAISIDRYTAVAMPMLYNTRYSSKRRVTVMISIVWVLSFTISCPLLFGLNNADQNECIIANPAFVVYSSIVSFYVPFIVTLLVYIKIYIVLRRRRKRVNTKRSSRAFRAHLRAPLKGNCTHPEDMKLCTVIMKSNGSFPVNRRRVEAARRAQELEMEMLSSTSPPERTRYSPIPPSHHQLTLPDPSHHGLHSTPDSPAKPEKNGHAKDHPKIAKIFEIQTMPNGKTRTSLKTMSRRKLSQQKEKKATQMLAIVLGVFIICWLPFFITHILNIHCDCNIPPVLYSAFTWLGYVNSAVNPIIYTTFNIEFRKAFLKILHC
D(3) dopamine receptor, sequence (P35462 whole entry): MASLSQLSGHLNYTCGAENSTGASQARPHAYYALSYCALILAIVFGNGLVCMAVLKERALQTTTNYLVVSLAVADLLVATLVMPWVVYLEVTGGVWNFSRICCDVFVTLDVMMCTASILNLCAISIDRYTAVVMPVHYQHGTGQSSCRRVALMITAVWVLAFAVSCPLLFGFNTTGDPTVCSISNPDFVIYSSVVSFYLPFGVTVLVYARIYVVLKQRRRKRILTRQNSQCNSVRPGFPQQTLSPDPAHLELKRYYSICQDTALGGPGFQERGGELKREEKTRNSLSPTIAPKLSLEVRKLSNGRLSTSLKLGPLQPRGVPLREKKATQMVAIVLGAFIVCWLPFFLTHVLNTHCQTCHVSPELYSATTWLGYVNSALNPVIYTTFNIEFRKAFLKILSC
Histamine H1 receptor, sequence (P35367 whole entry): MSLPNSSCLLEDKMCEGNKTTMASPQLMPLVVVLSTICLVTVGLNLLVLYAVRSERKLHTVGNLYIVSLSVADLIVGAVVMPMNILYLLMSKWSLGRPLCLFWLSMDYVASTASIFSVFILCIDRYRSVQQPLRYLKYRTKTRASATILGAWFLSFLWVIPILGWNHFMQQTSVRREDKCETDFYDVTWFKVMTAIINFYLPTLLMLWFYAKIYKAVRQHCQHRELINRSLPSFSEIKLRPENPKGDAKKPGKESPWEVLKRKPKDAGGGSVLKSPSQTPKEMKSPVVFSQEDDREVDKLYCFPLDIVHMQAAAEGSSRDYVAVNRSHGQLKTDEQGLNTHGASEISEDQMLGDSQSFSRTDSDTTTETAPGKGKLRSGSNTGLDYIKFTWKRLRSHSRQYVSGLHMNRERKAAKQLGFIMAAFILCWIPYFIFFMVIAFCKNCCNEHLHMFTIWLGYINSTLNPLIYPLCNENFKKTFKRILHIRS
5-hydroxytryptamine receptor 2A, sequence (P28223 whole entry): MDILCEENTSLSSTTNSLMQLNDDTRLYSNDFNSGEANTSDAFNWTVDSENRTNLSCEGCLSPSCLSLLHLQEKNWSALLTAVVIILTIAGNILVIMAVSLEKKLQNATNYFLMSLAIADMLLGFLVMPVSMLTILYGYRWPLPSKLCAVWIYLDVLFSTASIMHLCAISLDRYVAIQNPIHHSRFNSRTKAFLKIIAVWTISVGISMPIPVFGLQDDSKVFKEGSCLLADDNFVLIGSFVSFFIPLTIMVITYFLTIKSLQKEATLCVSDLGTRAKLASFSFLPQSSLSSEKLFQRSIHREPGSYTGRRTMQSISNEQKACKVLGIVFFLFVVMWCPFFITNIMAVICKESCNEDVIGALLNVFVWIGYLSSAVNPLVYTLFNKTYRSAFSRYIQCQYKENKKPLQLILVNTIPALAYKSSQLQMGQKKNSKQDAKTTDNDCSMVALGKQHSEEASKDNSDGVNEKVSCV
5-hydroxytryptamine receptor 1D, sequence (P28221 whole entry): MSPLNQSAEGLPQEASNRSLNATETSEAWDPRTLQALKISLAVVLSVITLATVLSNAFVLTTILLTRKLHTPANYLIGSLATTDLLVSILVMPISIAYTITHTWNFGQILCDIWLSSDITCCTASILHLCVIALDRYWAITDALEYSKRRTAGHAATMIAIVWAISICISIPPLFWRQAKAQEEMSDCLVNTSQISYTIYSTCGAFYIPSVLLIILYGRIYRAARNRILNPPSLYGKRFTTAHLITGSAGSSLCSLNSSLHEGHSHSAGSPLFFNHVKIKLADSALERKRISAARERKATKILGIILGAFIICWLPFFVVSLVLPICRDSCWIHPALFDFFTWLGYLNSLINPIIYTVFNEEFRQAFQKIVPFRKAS
5-hydroxytryptamine receptor 7, sequence (P34969 whole entry): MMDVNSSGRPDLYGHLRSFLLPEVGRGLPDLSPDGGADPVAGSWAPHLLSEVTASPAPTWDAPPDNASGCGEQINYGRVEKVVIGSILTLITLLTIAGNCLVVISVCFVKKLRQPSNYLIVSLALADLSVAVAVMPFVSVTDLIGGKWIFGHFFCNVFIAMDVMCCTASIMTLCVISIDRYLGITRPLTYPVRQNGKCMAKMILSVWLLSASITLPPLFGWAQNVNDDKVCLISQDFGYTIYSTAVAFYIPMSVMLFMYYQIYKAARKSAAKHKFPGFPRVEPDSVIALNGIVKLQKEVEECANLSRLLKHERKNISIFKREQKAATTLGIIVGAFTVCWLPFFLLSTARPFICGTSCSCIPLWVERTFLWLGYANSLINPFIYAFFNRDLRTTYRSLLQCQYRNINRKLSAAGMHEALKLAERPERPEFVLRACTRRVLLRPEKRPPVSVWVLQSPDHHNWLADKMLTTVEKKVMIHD
D(2) dopamine receptor (Rattus norvegicus, UniProt P61169), sequence (P61169 whole entry): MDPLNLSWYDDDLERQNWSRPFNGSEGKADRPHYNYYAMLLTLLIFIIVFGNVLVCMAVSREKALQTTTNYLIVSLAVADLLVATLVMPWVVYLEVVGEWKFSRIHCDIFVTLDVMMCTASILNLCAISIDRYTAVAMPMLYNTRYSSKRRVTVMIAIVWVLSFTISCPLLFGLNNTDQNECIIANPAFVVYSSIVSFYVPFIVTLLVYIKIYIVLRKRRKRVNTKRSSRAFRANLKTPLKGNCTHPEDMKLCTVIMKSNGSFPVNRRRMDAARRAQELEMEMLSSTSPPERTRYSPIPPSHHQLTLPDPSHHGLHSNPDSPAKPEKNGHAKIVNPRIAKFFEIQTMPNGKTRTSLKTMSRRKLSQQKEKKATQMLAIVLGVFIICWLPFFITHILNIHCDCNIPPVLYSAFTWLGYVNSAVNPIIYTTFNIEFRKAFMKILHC

As for `CN(C)CC1CC2c3ccccc3Cc3ccccc3N2O1` (stereo in doubt; 2a), the IC50 (commonly the concentration that inhibits the measured activity by half) in assay [1] was 372 nM; in assay [2], 22.9 nM; in assay [3], 977 nM; in [5], 661 nM; in assay [6], 6.76 nM; in assay [7] it was 1860 nM. In addition, the half-maximal inhibitory concentration (IC50) is 195 nM in assay [9]; 132 nM in assay [10]; 170 nM in [11]; 871 nM in [12]; 537 nM in assay [13]; 12.3 nM in assay [14]. Further, in [4], the pIC50 (as a rule, −log10 of the IC50, conventionally taken in molar units) is on record as 5.92. In addition, in assay [8], the ED50 (usually the midpoint of the dose-response relation) amounted to 0.04 mg/kg.

As for `CNCC1CC2c3ccccc3Cc3ccccc3N2O1` (centres undefined), the IC50 in assay [1] is 437 nM; in assay [2], 13.2 nM; in [3] it was over 1000 nM; in assay [5], over 1000 nM; in [6], 10.7 nM; in assay [7], over 1000 nM. The IC50 in assay [16] was 18.6 nM; in assay [10], 302 nM; in assay [11], 339 nM; in [12] it was 1700 nM; in assay [13], 191 nM; in [14] it was 7.08 nM. Besides, in [4], the pIC50 is on record as under 6. Also, the 50% effective dose (ED50) in assay [15] was over 2.5 mg/kg; in assay [8] (Rattus norvegicus, sc, read-out: ED50), 0.16 mg/kg.

The values are drawn from ChEMBL document CHEMBL1135380, “Synthesis and structure-activity relationship of 2-(aminoalkyl)-2,3,3a,8-tetrahydrodibenzo[c,f]isoxazolo[2,3-a]azepine derivatives: a novel series of 5-HT(2A/2C) receptor antagonists. Part 1” (Bioorg Med Chem Lett, 2002).
